Experimental data published in patent EP0846269B1, “A METHOD OF DETERMINING THE DEGREE OF AGGREGATION OF THE BETA A4 PEPTIDE” (Aventis Pharmaceuticals Inc., priority 1995, dated 1997).
Residues, ends and D or L forms follow the SMILES beside them.

Target: β-amyloid (also known as βA4) peptide (Homo sapiens, UniProt P05067)
Test: Bradford dye (Coomassie Brilliant Blue G-250) assay of β-amyloid peptide aggregation, absorbance at 595 nm
Format: biochemical
Conditions: for inhibition at 500 µM: 500 µM compound; for inhibition at 1000 µM: 1 mM (or 1000 µM) compound
Experimental: β-amyloid (also known as βA4) peptide was dissolved in 100% dimethylsulfoxide (DMSO) at 10 mg/mL (or 2500 µM) concentration. The resultant solution was diluted to 1 mg/ml (or 250 µM) stock in Phosphate Buffered Saline (PBS), pH 7.4, just prior to setting up the assay and dispensed in individual sample wells of a Corning 96-well plate at 16µL per well (i.e. a final concentration of 25 µM). All treatments were done in triplicate.
In this example, the candidate compound was added to the test wells at three different concentrations (250µM, 500µM and 1mM). Total volume in each well was brought up to 160µL with PBS. For untreated control wells, no compound was added to the β-amyloid peptide, and the total volume was made to 160µL with PBS. The plates were sealed with parafilm and incubated at 37°C for 48 hours.
(§1) At the end of the incubation period, the plates were taken out and 25µL of Bio-Rad protein assay dye reagent (Bradford dye) was added to all the wells with samples. A standard curve was also set up at this time for estimation of fresh (also considered as unaggregared) peptide absorbance. The dye was mixed by pipeting and the plates quickly spun at 2500 rpm to remove bubbles.
The absorbance was read at 595 nm in a Dynatech MR5000 plate reader 15 minutes after adding the dye. The percent decrease in aggregation of β-amyloid due to the addition of candidate compound A41920t which is a 8-mer peptide of sequence Glutamine-Lysine-Leucine-Valine-Threonine-Threonine-Alanine-Glutamate ([…]) was calculated from the difference between untreated aggregated peptide and the treated aggregated peptide.
The procedure of Example 1 was repeated except that hydrogen peroxide (10µL of 30% stock) was added to the wells in a 96-well plate with 16µL of the 1 mg/mL β-amyloid stock. The final volume was then brought up to 160µL by adding 134µL of PBS to these wells. The plate was sealed and incubated at 37°C for 48 hours.
as §1, with “samples as in Example 1.” for “samples.”, “again used” for “also set up at this time”, “unaggregated)” for “unaggregared)”
The absorbance was read at 595nm in the Dynatech MR5000 plate reader 15 minutes after adding the dye. The amount of aggregation was estimated by subtracting background and taking the difference between the fresh and hydrogen peroxide treated β-amyloid readings. The difference was expressed as percent over fresh or unaggregated peptide.

[1] = 25 µM β-amyloid, PBS pH 7.4, 37°C, 48 hours, read-out: percent decrease in aggregation of β-amyloid

Sequence of β-amyloid (also known as βA4) peptide (P05067 672-713 limits assumed): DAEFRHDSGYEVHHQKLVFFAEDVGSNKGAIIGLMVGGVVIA

Row | inhibition at 500 µM [1] [%] | inhibition at 1000 µM [1] [%] | inhibition at 250 µM (250 µM compound, 25 µM β-amyloid, PBS pH 7.4, 37°C, 48 hours, read-out: percent decrease in aggregation of β-amyloid) [%] | SMILES | percentage of aggregation (10µL of 30% stock in 160µL, 37°C, after 48 hrs, percent over fresh or unaggregated peptide) [%]
1 | 29.7 | 37.4 |  | CCCn1cnc2c1c(=O)n(CCCCC(C)=O)c(=O)n2C [propentofylline, 1-(5'-oxohexyl)-3-methyl-7-propyl-2,6-(1H,3H)-purinedione] | 
2 |  |  |  | OO [hydrogen peroxide] | 97.7
3 | 52.4 | 32.3 | 48.1 | CC(C)CC(NC(=O)C(CCCCN)NC(=O)C(N)CCC(N)=O)C(=O)NC(C(=O)NC(C(=O)NC(C(=O)NC(C)C(=O)NC(CCC(=O)O)C(=O)O)C(C)O)C(C)O)C(C)C (stereo not drawn) [A41920t, Glutamine-Lysine-Leucine-Valine-Threonine-Threonine-Alanine-Glutamate (QKLVTTAE)] (H-QKLVTTAE-OH; configuration not given here) | 
